Experiments:
HCV = assay: microbe, parasite or virus in culture; type: cell-based; details: Hepatitis C virus, read-out: antiviral activity EC50
HCV RNA replication = assay: Subgenomic HCV replicon assay (influence on replication); type: cell-based, Hepatitis C virus; details: subgenomic HCV replicon system, at non-toxic concentrations, FIG. 2
Description: Haprolid has been identified as a potent inhibitor of HCV. Experiments confirmed its antiviral activity at nanomolar concentrations (EC50<6 nM) with toxicity in low micromolar ranges (TC50˜0.1 μM) (FIG. 1). […] Employing HCVTCP, influences on HCV RNA replication and virus entry are quantified.

infectious HCV particles = assay: Influence on assembly and/or release of infectious HCV particles; type: cell-based, Hepatitis C virus
Source text: (§1) Moreover, an influence of the compound on the steps leading to assembly and release of infectious HCV particles has been shown. Total production of infectious virus particles was reduced about 3-fold (FIG. 5c). […] However, this was not caused by an influence of the drug on lipoprotein secretion (ApoB/E, FIG. 6), on which HCV secretion strongly depends, nor a general influence on the secretory capacity of the cell as shown for albumin (FIG. 6).
FIGS. 5a-c show the influence on assembly and/or release.

[1] = system: lipoprotein secretion (ApoB/E), albumin; assay: Secretion of lipoproteins (ApoB/E) or albumin; type: cell-based; details: FIG. 6
Source text: as §1

HCVTCP = assay: Preincubation experiment in the context of HCV TCP infection; type: cell-based, Hepatitis C virus; details: HCVTCP system, FIG. 3
[2] = system: retroviral particles pseudotyped with the glycoproteins of either HCV, VSV or MLV
[3] = system: Huh7-Lunet-hCD81-Gluc cells; assay: Cell viability by G-Luc activity in the whole life cycle assay; details: FIG. 1

With COC(C)CCCC1CC/C(C)=C\CC(=O)NC(Cc2ccccc2)C(=O)N(C)CC(=O)N(C)C(CC(C)C)C(=O)N2CCCC2C(=O)O1 (stereo not drawn) [Haprolid] the EC50 (HCV) was < 6 nM, the “reduction of HCV RNA replication” value (HCV RNA replication) was 5 fold and the “reduction of intracellular virus titer” value (infectious HCV particles; FIG. 5a) was 100 fold. For the same compound, the “reduction of total production of infectious virus particles” value (infectious HCV particles; FIG. 5c) was “about 3 fold”, the “influence on secretion of albumin” value [1] was “no influence” and the “influence on secretion of lipoproteins (ApoB/E)” value [1] was “no influence”. The “effect of preincubation of cells or of virus compared with addition of compound during infection” value (HCVTCP) was “only preincubation of the cells, but not of the virus resulted in a comparable effect”, the “decrease of infectivity of pseudotyped retroviral particles” value [2] was 100-1000 fold and the “toxicity TC50” value [3] was ~0.1 µM.
